From patent US10039761B2, “Co-crystals and pharmaceutical compositions comprising the same” (Vertex Pharmaceuticals Incorporated, priority 2013, dated 2018) come the findings set out here.

Data set [1] concerns HCC-1395. The data set is described as follows: Doxorubicin combination in triple negative breast cancer cells. It is filed as cell-based. The following applies: Homo sapiens, HCC1395, read-out: Doxorubicin IC50 (μM); plating density 5000; BRCA mutant. Here is the method:
(§1) The cell-based experiments and assays were performed with either molecule but not always with both. Compounds (1) and (2) were generally very similar in those assays and experiments. Analysis of the combination experiments was performed using two methods: the Bliss Additivity model and the Mixtures Blend method to determine the degree of synergy, additivity, or antagonism. In the Bliss method, a matrix of Bliss scores was generated for each cell line and treatment, and a sum of the Bliss values over the range of combination concentrations tested was calculated. […] Larger average Bliss values indicate greater confidence in reporting synergy, and smaller scores indicate greater confidence in reporting antagonism. In the Mixtures Blend method combinants were added in a range of optimal ratios using design of experiment (DOE) software (DX-8 from STAT-EASE); the cells were irradiated with 2 Gy as required. Synergy was determined using statistical analysis of the data (ANOVA) to indicate linear (additivity) or statistically significant (p<0.1) non-linear (antagonism or synergy) mixes of the combinants.

For data set [2], the system named is MDA-MB-468. Described as above. The format is cell-based. The note with it: Homo sapiens, BRCA wild-type. Here is the method: as §1
Data set [3] has as its system MDA-MB-436. Described as above. The format is cell-based. The note with it: Homo sapiens, BRCA mutant. Here is the method:
as §1

The subject of data set [4] is HCC-1937. The data set is described as above. The following applies: Homo sapiens, BRCA mutant. It is filed as cell-based. On the procedure:
as §1

The test system of data set [5] is HCC-1599. The description is as above. The following applies: Homo sapiens, HCC1599, read-out: Doxorubicin IC50 (μM); plating density unknown; BRCA mutant. It is filed as cell-based. On the procedure: as §1
The test system of data set [6] is ESO26 (GEJ) cancer cell line. Put plainly: Combination with genotoxic agents, viability (Mixtures analysis). The format is cell-based. The note with it: single agent IC50 on which the mixtures were based. Here is the method:
as §1

A short description of data set [7]: Two stage dissolution (FaSSGF then FaSSIF). The format is physicochemical. The following applies: 37° C., compared with free form.
Procedure: Two stage dissolution experiments were performed at least in duplicate. Fasted state simulated gastric fluid (FaSSGF) was equilibrated for 30 minutes under stirring to 37° C. in a 100 ml clear class vial using a water bath consisting of a temperature controlled jacketed vessel. The compound 1:adipic acid co-crystal and compound 2:adipic acid co-crystal was added and the suspension was stirred at about 130 rpm and 37° C., respectively. Aliquots (0.5 ml) were taken at 5, 15, 30, and 60 minutes. Solids were separated by filter centrifugation using centrifuge filter units with a 0.45 μm membrane and spinning at 5000 rpm for 5 minutes on an Eppendorff Model 5418 centrifuge. The pH of the dissolution samples was measured after sampling at 15 and 60 minute time points. The supernatants of the filtered samples were 10 fold diluted of with diluent for HPLC Analysis. At the 65 minute timepoint fasted state simulated intestinal fluid FaSSIF equilibrated at 37° C. was added to the suspension and the suspension was continued to stir at 130 rpm. Aliquots (0.5 ml) were taken at 75, 90, 120 and 180 minute timepoints. Solids were separated by filter centrifugation using centrifuge filter units with a 0.45 μm membrane and spinning at 5000 rpm for 5 minutes on an Eppendorff Model 5418 centrifuge. The pH of the dissolution samples was measured after sampling at 75, 90 and 180 minute time points. […]
The target in data set [8] is DNA-PK (Homo sapiens, UniProt P78527). Put plainly: DNA-PK kinase inhibition radiometric assay. The format is biochemical. The note with it: 100 μM ATP; competitive tight-binding inhibition fit. Here is the method:
Accordingly, compounds of the invention were dissolved in DMSO to make 10 mM initial stock solutions. Serial dilutions in DMSO were then made to obtain the final solutions for the assay.

By IC50 is commonly meant the point on the concentration scale where inhibition reaches its midpoint. A word on the Ki: it is a measure of affinity in units of concentration, obtained from inhibition or displacement. Lower therefore signals tighter binding.

Molecules are shown by their SMILES. Read-outs that look alike come from different tables or passages of the source.

In the case of `COc1cccc2c1C(=O)c1c(O)c3c(c(O)c1C2=O)C[C@@](O)(C(=O)CO)C[C@@H]3O[C@H]1C[C@H](N)[C@H](O)[C@H](C)O1` [Doxorubicin, reference compound], the IC50 worked out at 0.5 µM in data set [1]; 0.02 µM in data set [2] (MDA-MB-468, read-out: Doxorubicin IC50 (μM), plating density 5000); 0.04 µM in data set [2] (MDA-MB-468, read-out: Doxorubicin IC50 (μM), plating density 20000); 0.7 µM in data set [3] (MDA-MB-436, read-out: Doxorubicin IC50 (μM), plating density 5000); 0.3 µM in data set [3] (MDA-MB-436, read-out: Doxorubicin IC50 (μM), plating density 20000); 0.2 µM in data set [4] (HCC1937, read-out: Doxorubicin IC50 (μM), plating density 5000). In addition, the IC50 in data set [4] (HCC1937, read-out: Doxorubicin IC50 (μM), plating density 20000) was 0.6 µM; in data set [5] it was 0.2 µM.

On to `N.N.[Cl][Pt][Cl]` [cisplatin], for which the IC50 in data set [6] amounted to 1500 nM.

`[2H]c1nc(C)nc([2H])c1-c1cc(NC[C@@H](C)c2cccc3c(C(=O)NC)ccnc23)ncn1` [adipic acid co-crystal of Compound (2)]: in data set [7], the “two stage dissolution concentrations” value was “higher Compound 1 and Compound 2 concentrations than Compound 1 or Compound 2 free form”. The same compound yielded a Ki in data set [8] of roughly 2 nM.

For the compound `N.N.O=C([O-])C1(C(=O)[O-])CCC1.[Pt+2]` [carboplatin], the IC50 in data set [6] was found to be 50000 nM.

In the case of `CC(=O)O[C@H]1C(=O)[C@@]2(C)[C@H]([C@H](OC(=O)c3ccccc3)[C@]3(O)C[C@H](OC(=O)[C@H](O)[C@@H](NC(=O)c4ccccc4)c4ccccc4)C(C)=C1C3(C)C)[C@]1(OC(C)=O)CO[C@@H]1C[C@@H]2O` [paclitaxel], the IC50 in data set [6] came to 3 nM.

In the case of `COc1cc([C@@H]2c3cc4c(cc3[C@@H](O[C@@H]3O[C@@H]5CO[C@@H](C)O[C@H]5[C@H](O)[C@H]3O)[C@H]3COC(=O)[C@H]23)OCO4)cc(OC)c1O` [etoposide], the IC50 in data set [6] came out at 600 nM.

In the case of `O=c1[nH]cc(F)c(=O)[nH]1` [Compound 5-FU, fluorouracil], the IC50 in data set [6] came out at 20000 nM.
